What follows are molecules tested against T1, XIAP (Homo sapiens, UniProt P98170) (assay: Disruption of the Smac peptide-(XIAP)BIR3 protein-protein interaction (Tables 2 and 3)). Settings: Series A compounds, Table 2; read-out: XIAP IC50.
T1 construct: GST
Type: binding
Experimental: IC50 values for Series A compounds for XIAP. An assay capable of measuring disruption of the Smac peptide-(XIAP)BIR3 protein-protein interaction is established in the art as described in Example 2. In this assay IAP Inhibitor compounds compete with an immobilized Smac peptide for occupancy of the BIR3 binding pocket of XIAP. The rationale for this strategy results from the mutually exclusive nature of either Caspase 9 or Smac binding to the BIR3 pocket.
Assays are performed and IC50 values are calculated as follows: […]
IC50 values are calculated by logarithmic regression analysis of the percentage inhibition of each compound at 4 concentrations (usually 3- or 10-fold dilution series starting at 10 μM). In each experiment, the actual inhibition by reference compound is used for normalization of IC50 values to the basis of an average value of the reference inhibitor: Normalized IC50=measured IC50 average ref. IC50/measured ref. IC50
Activity determinations of compounds herein using the testing method described herein and as are well known in the art, are used with the following test compounds of formula (I). […] “Activity” as used herein is defined as having IC50 values for IAP target inhibition of less than 10 μM. Specifically, in the table:
IC50 values for Series B compounds are provided for XIAP. Assays are performed as described above using methods well known in the art.

T1 sequence (P98170 248-358 limits assumed, species assumed): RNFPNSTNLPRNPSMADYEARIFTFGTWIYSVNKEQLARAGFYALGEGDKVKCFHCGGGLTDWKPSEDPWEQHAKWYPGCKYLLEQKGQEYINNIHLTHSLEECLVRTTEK

| Compound | IC50 |
| --- | --- |
| CN[C@@H](C)C(=O)N[C@H](C(=O)N1CCN(C(=O)CCOC)C[C@H]1C(=O)NC1CCCc2ccccc21)C(C)C (stereo partly drawn) [Compound 18, (S)-4-(3-Methoxy-propionyl)-1-[(S)-3-methyl-2-((S)-2-methylamino-propionylamino)-butyryl]-piperazine-2-carboxylic acid (1,2,3,4-tetrahydro-naphthalen-1-yl)-amide] | < 10 µM |
| CN[C@@H](C)C(=O)N[C@H](C(=O)N1CCN(Cc2ccc(NC(C)=O)cc2)C[C@H]1C(=O)NC1CCCc2ccccc21)C(C)C (stereo partly drawn) [Compound 16, (S)-4-(4-Acetylamino-benzyl)-1-[(S)-3-methyl-2-((S)-2-methylamino-propionylamino)-butyryl]-piperazine-2-carboxylic acid (1,2,3,4-tetrahydro-naphthalen-1-yl)-amide] | < 10 µM |
| CN[C@@H](C)C(=O)N[C@H](C(=O)N1CCN(CCC(C)(C)C)C[C@H]1C(=O)NC1CCCc2ccccc21)C(C)C (stereo partly drawn) [Compound 21, (S)-4-(3,3-Dimethyl-butyl)-1-[(S)-3-methyl-2-((S)-2-methylamino-propionylamino)-butyryl]-piperazine-2-carboxylic acid (1,2,3,4-tetrahydro-naphthalen-1-yl)-amide] | < 10 µM |
| CN[C@@H](C)C(=O)N[C@H](C(=O)N1CCN(CC2CCCC2)C[C@H]1C(=O)NC1CCCc2ccccc21)C(C)C (stereo partly drawn) [Compound 7, (S)-4-Cyclopentylmethyl-1-[(S)-3-methyl-2-((S)-2-methylamino-propionylamino)-butyryl]-piperazine-2-carboxylic acid (1,2,3,4-tetrahydro-naphthalen-1-yl)-amide] | < 10 µM |
| CN[C@@H](C)C(=O)N[C@H](C(=O)N1CCN(Cc2cccc(Oc3ccccc3)c2)C[C@H]1C(=O)NC1CCCc2ccccc21)C(C)C (stereo partly drawn) [Compound 4, (S)-1-[(S)-3-Methyl-2-((S)-2-methylamino-propionylamino)-butyryl]-4-(3-phenoxy-benzyl)-piperazine-2-carboxylic acid (1,2,3,4-tetrahydro-naphthalen-1-yl)-amide] | < 10 µM |
| CN[C@@H](C)C(=O)N[C@H](C(=O)N1CCN(Cc2ccc(OC(F)(F)F)cc2)C[C@H]1C(=O)NC1CCCc2ccccc21)C(C)C (stereo partly drawn) [Compound 23, (S)-1-[(S)-3-Methyl-2-((S)-2-methylamino-propionylamino)-butyryl]-4-(4-trifluoromethoxy-benzyl)-piperazine-2-carboxylic acid (1,2,3,4-tetrahydro-naphthalen-1-yl)-amide] | < 10 µM |
| CN[C@@H](C)C(=O)N[C@H](C(=O)N1CCN(Cc2ccc(F)cc2)C[C@H]1C(=O)NC1CCCc2ccccc21)C(C)C (stereo partly drawn) [Compound 10, (S)-4-(4-Fluoro-benzyl)-1-[(S)-3-methyl-2-((S)-2-methylamino-propionylamino)-butyryl]-piperazine-2-carboxylic acid (1,2,3,4-tetrahydro-naphthalen-1-yl)-amide] | < 10 µM |
| CN[C@@H](C)C(=O)N[C@H](C(=O)N1CCN(Cc2ccc(C(F)(F)F)cc2)C[C@H]1C(=O)NC1CCCc2ccccc21)C(C)C (stereo partly drawn) [Compound 12, (S)-1-[(S)-3-Methyl-2-((S)-2-methylamino-propionylamino)-butyryl]-4-(4-trifluoromethyl-benzyl)-piperazine-2-carboxylic acid (1,2,3,4-tetrahydro-naphthalen-1-yl)-amide] | < 10 µM |
| CN[C@@H](C)C(=O)N[C@H](C(=O)N1CCN(Cc2ccccc2)C[C@H]1C(=O)NC1CCCc2ccccc21)C(C)C (stereo partly drawn) [Compound 14, (S)-4-Benzyl-1-[(S)-3-methyl-2-((S)-2-methylamino-propionylamino)-butyryl]-piperazine-2-carboxylic acid (1,2,3,4-tetrahydro-naphthalen-1-yl)-amide] | < 10 µM |

Further lines, results first:

| IC50 | Compound |
| --- | --- |
| < 10 µM | CN[C@@H](C)C(=O)N[C@H](C(=O)N1CCN(Cc2ccccc2)C[C@H]1C(=O)NC1CCCc2ccccc21)C(C)C (stereo partly drawn) [Compound 52, (S)-4-Benzyl-1-[(S)-3-methyl-2-((S)-2-methylamino-propionylamino)-butyryl]-piperazine-2-carboxylic acid (1,2,3,4-tetrahydro-naphthalen-1-yl)-amide] |
| < 10 µM | CN[C@@H](C)C(=O)N[C@H](C(=O)N1CCNC[C@H]1C(=O)NC1CCCc2ccccc21)C1CCCCC1 (stereo partly drawn) [Compound 59, (S)-1-[(S)-2-Cyclohexyl-2-((S)-2-methylamino-propionylamino)-acetyl]-piperazine-2-carboxylic acid (1,2,3,4-tetrahydro-naphthalen-1-yl)-amide] |
| < 10 µM | CN[C@@H](C)C(=O)N[C@H](C(=O)N1CCN(C(=O)NC(C)C)C[C@H]1C(=O)NC1CCCc2ccccc21)C(C)C (stereo partly drawn) [Compound 48, (S)-4-[(S)-3-Methyl-2-((S)-2-methylamino-propionylamino)-butyryl]-piperazine-1,3-dicarboxylic acid 1-isopropylamide 3-[(1,2,3,4-tetrahydro-naphthalen-1-yl)-amide]] |
| < 10 µM | CN[C@@H](C)C(=O)N[C@H](C(=O)N1CCN(Cc2ccccc2Cl)C[C@H]1C(=O)NC1CCCc2ccccc21)C(C)C (stereo partly drawn) [Compound 45, (S)-4-(2-Chloro-benzyl)-1-[(S)-3-methyl-2-((S)-2-methylamino-propionylamino)-butyryl]-piperazine-2-carboxylic acid (1,2,3,4-tetrahydro-naphthalen-1-yl)-amide] |
| < 10 µM | CN[C@@H](C)C(=O)N[C@H](C(=O)N1CCN(CC2CC2)C[C@H]1C(=O)NC1CCCc2ccccc21)C(C)C (stereo partly drawn) [Compound 36, (S)-4-Cyclopropylmethyl-1-[(S)-3-methyl-2-((S)-2-methylamino-propionylamino)-butyryl]-piperazine-2-carboxylic acid (1,2,3,4-tetrahydro-naphthalen-1-yl)-amide] |
| < 10 µM | CN[C@@H](C)C(=O)N[C@H](C(=O)N1CCN(Cc2ccccn2)C[C@H]1C(=O)NC1CCCc2ccccc21)C(C)C (stereo partly drawn) [Compound 49, (S)-1-[(S)-3-Methyl-2-((S)-2-methylamino-propionylamino)-butyryl]-4-pyridin-2-ylmethyl-piperazine-2-carboxylic acid (1,2,3,4-tetrahydro-naphthalen-1-yl)-amide] |
| < 10 µM | CN[C@@H](C)C(=O)N[C@H](C(=O)N1CCN(C(=O)Nc2ccc(F)cc2)C[C@H]1C(=O)NC1CCCc2ccccc21)C(C)C (stereo partly drawn) [Compound 40, (S)-4-[(S)-3-Methyl-2-((S)-2-methylamino-propionylamino)-butyryl]-piperazine-1,3-dicarboxylic acid 1-[(4-fluoro-phenyl)-amide] 3-[(1,2,3,4-tetrahydro-naphthalen-1-yl)-amide]] |
| < 10 µM | CN[C@@H](C)C(=O)N[C@H](C(=O)N1CCN(c2ccc(F)cc2)C[C@H]1C(=O)NC1CCCc2ccccc21)C(C)C (stereo partly drawn) [Compound 44, (S)-4-(4-Fluoro-phenyl)-1-[(S)-3-methyl-2-((S)-2-methylamino-propionylamino)-butyryl]-piperazine-2-carboxylic acid (1,2,3,4-tetrahydro-naphthalen-1-yl)-amide] |
| < 10 µM | CN[C@@H](C)C(=O)N[C@H](C(=O)N1CCN(C(=O)NC(C)(C)C)C[C@H]1C(=O)NC1CCCc2ccccc21)C(C)C (stereo partly drawn) [Compound 39, (S)-4-[(S)-3-Methyl-2-((S)-2-methylamino-propionylamino)-butyryl]-piperazine-1,3-dicarboxylic acid 1-tert-butylamide 3-[(1,2,3,4-tetrahydro-naphthalen-1-yl)-amide]] |
| < 10 µM | CN[C@@H](C)C(=O)N[C@H](C(=O)N1CCN(CCOC)C[C@H]1C(=O)NC1CCCc2ccccc21)C(C)C (stereo partly drawn) [Compound 38, (S)-4-(2-Methoxy-ethyl)-1-[(S)-3-methyl-2-((S)-2-methylamino-propionylamino)-butyryl]-piperazine-2-carboxylic acid (1,2,3,4-tetrahydro-naphthalen-1-yl)-amide] |

Same assay, conditions: Series B compounds, Table 3; read-out: XIXP IC50

| IC50 | Compound |
| --- | --- |
| < 10 µM | CN[C@@H](C)C(=O)N[C@H](C(=O)N1CCN(Cc2ccccc2)C[C@H]1C(=O)NC1CCc2ccccc21)C(C)C (stereo partly drawn) [Compound 62, (S)-4-Benzyl-1-[(S)-3-methyl-2-((S)-2-methylamino-propionylamino)-butyryi]-piperazine-2-carboxylic acid indan-1-ylamide] |
| < 10 µM | CN[C@@H](C)C(=O)N[C@H](C(=O)N1CCN(Cc2ccccc2)C[C@H]1C(=O)NCC1CCCC1)C(C)C [Compound 81, (S)-4-Benzyl-1-[(S)-3-methyl-2-((S)-2-methylamino-propionylamino)-butyryl]-piperazine-2-carboxylic acid cyclopentylmethyl-amide] |
| < 10 µM | CN[C@@H](C)C(=O)N[C@H](C(=O)N1CCN(Cc2ccccc2)C[C@H]1C(=O)NCCc1cccc(F)c1)C(C)C [Compound 63, (S)-4-Benzyl-1-[(S)-3-methyl-2-((S)-2-methylamino-propionylamino)-butyryl]-piperazine-2-carboxylic acid [2-(3-fluoro-phenyl)-ethyl]-amide] |
| < 10 µM | CN[C@@H](C)C(=O)N[C@H](C(=O)N1CCN(Cc2ccccc2)C[C@H]1C(=O)NC1Cc2ccccc2C1)C(C)C [Compound 78, (S)-4-Benzyl-1-[(S)-3-methyl-2-((S)-2-methylamino-propionylamino)-butyryl]-piperazine-2-carboxylic acid indan-2-ylamide] |

— patent US7932255B2, “2-aminocarbonyl substituted piperazine or diaza-cyclic compounds as apoptosis protein inhibitors (lap) modulators” (Novartis AG, priority 2006, dated 2011)
